Series [1] deals with TS leaf whorl explants obtained from the Q187 and Q124 sugarcane cultivars. Kind of series: Cross-testing of NAA and BA concentrations for shoot regeneration from thin section leaf whorl explants. The series is classed as cell-based. The conditions noted are these: for optimal concentration in culture medium for regeneration: Q187 and Q124 TS leaf whorl explants. As to the method: Murashige & Skoog (MS) nutrient formulation supplemented with 30 g/L sucrose and 7.5 g/L Difco agar was used as the basal culture medium. Basal medium was, for certain phases of culture as will be described below, enriched with the cytokinin N^6-benzylaminopurine (BA) and the auxin a-napthaleneacetic acid NAA) together with anti-oxidants such as citric acid (CA), ascorbic acid (AA), or dithiothreitol (DTT). The pH of the medium was adjusted to 5.7 before autoclaving at 11kPa for 20 minutes at 120° C. TS explants were cultured in various orientations either in tissue culture dishes (90×14 mm) with 40 ml agar- solidified medium or in a 100 mL baby food jar containing 40 ml liquid medium, or on membrane rafts with flotation kept in a polypropylene container with 40 ml liquid medium. Liquid cultures were agitated continuously on a gyratory shaker at 120 rpm. All cultures were incubated at […] under 16 hr photoperiod provided by cool, white fluorescent tubes, Subculturing was carried out at least once a week, or more frequently if medium or TS turned brown due to phenolic exudation. Cross-testing of NAA and BA concentrations was also performed using TS leaf whorl explants obtained from the […] and […] sugarcane cultivars. […] However, higher concentrations of NAA (10-40 μM) promoted a slightly […] percentage of explants producing shoots. There was no clear trend in terms of the number of shoots produced with regard to either NAA or BA concentration, Generally, 4 μM BA was preferred at any given concentration of NAA, while NAA was optimal when present in culture medium at a concentration of 10 μM.

Series [2] deals with leaf TS explants (sugarcane cultivar Q165). The experiment in a line: Effect of selection agent on shoot regeneration from bombarded leaf TS explants. The series is classed as cell-based. To be noted: 100 mg/L in medium, transfer at 3 days after bombardment. The procedure: Sugarcane leaf sheath tissue taken from just above the meristem was taken from cultivar Q165 plants. Transverse thin section explants (2-3 mm) of leaf whorl were obtained from the harvested tissue. These are generally referred to as leaf thin sections.
A number of preliminary experiments were performed to detennije parametens which provided optimal regeneration from transformed tissue while providing optimal selection of transformants.
Similar results were obtained when bombarded TS explants were transferred to medium containing even low levels of selection agent.

The record followed here is patent US20040123342A1, “Monocotyledonous plant transformation” (Sugar Research & Development Corporation, priority 2000, published 2004).

For `c1ccc(CNc2ncnc3nc[nH]c23)cc1` [BA, N^6-benzylaminopurine], the “optimal concentration in culture medium for regeneration” value in series [1] was 4 µM. In addition, the “regeneration efficiency, 4 μM vs 8 μM BA” value in series [1] (cultivar Q124, any of the regeneration criteria examined) was “no clear preference”; in series [1] (cultivar Q187, TS leaf whorl explants) it was 4 μM BA was clearly more efficient than 8 μM BA.
As for `O=C(O)Cc1cccc2ccccc12` [NAA, a-napthaleneacetic acid], the “optimal concentration in culture medium for regeneration” value in series [1] amounted to 10 µM. Besides, the “percentage of explants producing shoots” value in series [1] (higher concentrations of NAA (10-40 μM)) is given as “slightly hither percentage of explants producing shoots”.
With paromomycin sulphate, the shoot regeneration result in series [2] was “no shoot regeneration”.
